Reference: ChEMBL document CHEMBL5143530 (Bioorg Med Chem Lett, 2022)
The source made the active and inactive calls. No cut-off for these calls is given here.

Assays:
[1] = molecular target: T1, Histone deacetylase 1 (Homo sapiens, UniProt Q13547); assay: Inhibition of purified human HDAC1 using Ac-Leu-Gly-(e-Ac)Lys-AMC by fluorometric HDAC assay
[2] = molecular target: T2, Androgen receptor (Homo sapiens, UniProt P10275); assay: Anti-androgenic activity at androgen receptor (unknown origin) expressed in HEK293 cells by BRET assay; assay type: cell-based
T2 sequence (P10275 whole entry): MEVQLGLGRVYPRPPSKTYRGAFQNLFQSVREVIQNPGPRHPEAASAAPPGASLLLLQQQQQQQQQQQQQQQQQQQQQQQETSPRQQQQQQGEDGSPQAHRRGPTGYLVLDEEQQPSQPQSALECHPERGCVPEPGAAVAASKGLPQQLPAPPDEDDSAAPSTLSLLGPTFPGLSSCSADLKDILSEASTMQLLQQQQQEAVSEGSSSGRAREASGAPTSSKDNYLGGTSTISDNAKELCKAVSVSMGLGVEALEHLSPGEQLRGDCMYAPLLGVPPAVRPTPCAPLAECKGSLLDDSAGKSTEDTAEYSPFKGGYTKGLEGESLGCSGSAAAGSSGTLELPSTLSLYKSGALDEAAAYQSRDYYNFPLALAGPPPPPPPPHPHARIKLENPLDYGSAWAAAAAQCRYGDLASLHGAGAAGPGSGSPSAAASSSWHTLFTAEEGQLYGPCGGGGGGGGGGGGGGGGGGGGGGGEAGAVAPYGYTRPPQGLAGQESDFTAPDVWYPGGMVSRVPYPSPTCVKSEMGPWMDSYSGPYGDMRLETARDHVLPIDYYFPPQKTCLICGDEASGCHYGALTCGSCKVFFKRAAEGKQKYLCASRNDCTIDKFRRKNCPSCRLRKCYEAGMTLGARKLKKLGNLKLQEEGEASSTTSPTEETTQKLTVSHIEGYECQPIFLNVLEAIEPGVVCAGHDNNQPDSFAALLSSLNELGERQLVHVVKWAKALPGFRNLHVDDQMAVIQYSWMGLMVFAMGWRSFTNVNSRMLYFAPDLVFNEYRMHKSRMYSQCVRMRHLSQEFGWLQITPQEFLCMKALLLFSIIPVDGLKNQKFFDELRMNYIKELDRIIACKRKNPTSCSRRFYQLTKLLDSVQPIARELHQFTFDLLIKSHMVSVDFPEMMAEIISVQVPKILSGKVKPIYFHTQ

[3] = tested on: LNCaP; assay: Antiproliferative activity against human LNCAP cells assessed as reduction in cell viability at 100 uM incubated for 5 days; assay type: functional, cell-based; conditions: time 5.0 day
[4] = tested on: PC-3; assay: Antiproliferative activity against human PC-3 cells assessed as reduction in cell viability at 1 to 100 uM incubated for 72 hrs; assay type: functional, cell-based; conditions: dose 1-100 µM
[5] = Antiproliferative activity against human BHPrS cells assessed as reduction in cell viability at 1 to 100 uM incubated for 72 hrs; assay type: toxicity, cell-based; conditions: dose 1-100 µM
[6] = tested on: LNCaP; assay: Antiproliferative activity against human LNCAP cells assessed as reduction in cell viability at 100 uM incubated for 72 hrs; assay type: functional, cell-based
[7] = tested on: BPH-1; assay: Antiproliferative activity against human BPH-1 cells assessed as reduction in cell viability at 1 to 100 uM incubated for 72 hrs; assay type: functional, cell-based; conditions: dose 1-100 µM
[8] = tested on: LNCaP; assay: Antiproliferative activity against human LNCAP cells assessed as reduction in cell viability at 10 uM incubated for 72 hrs; assay type: functional, cell-based
[9] = Inhibition of purified human HDAC2 using Ac-Leu-Gly-(e-Ac)Lys-AMC by fluorometric HDAC assay
[10] = tested on: LNCaP; assay: Antiproliferative activity against human LNCAP cells assessed as reduction in cell viability at 10 uM incubated for 5 days; assay type: functional, cell-based; conditions: time 5.0 day
[11] = molecular target: Class 1 histone deacetylase (Homo sapiens) (UniProt Q13547+O15379+Q92769+Q9BY41); assay: Inhibition of type I nuclear HDACs in human LNCaP cells assessed as induction of histone H3 and H4 acetylation at 10 uM by Western blotting; assay type: cell-based
[12] = molecular target: T1, Histone deacetylase 1; assay: Inhibition of purified human HDAC1 using Ac-Leu-Gly-(e-Ac)Lys-AMC pre-incubated for 18 hrs by fluorometric HDAC assay

T1 sequence (Q13547 whole entry): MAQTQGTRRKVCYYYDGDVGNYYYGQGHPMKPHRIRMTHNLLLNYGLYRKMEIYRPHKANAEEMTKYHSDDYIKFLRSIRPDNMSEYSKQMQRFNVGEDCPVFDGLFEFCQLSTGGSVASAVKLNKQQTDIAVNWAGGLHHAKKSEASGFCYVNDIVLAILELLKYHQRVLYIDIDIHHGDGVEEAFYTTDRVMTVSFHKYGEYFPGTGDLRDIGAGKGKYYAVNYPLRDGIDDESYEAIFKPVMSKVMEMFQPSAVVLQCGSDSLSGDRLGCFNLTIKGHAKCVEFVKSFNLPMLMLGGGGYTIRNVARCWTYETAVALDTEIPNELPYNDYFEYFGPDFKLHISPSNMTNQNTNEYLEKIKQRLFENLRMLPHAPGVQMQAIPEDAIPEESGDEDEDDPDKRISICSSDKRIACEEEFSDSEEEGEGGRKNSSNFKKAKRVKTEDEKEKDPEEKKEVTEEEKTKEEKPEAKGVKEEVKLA
Sequence of Class 1 histone deacetylase (Homo sapiens) (O15379 whole entry, looked up): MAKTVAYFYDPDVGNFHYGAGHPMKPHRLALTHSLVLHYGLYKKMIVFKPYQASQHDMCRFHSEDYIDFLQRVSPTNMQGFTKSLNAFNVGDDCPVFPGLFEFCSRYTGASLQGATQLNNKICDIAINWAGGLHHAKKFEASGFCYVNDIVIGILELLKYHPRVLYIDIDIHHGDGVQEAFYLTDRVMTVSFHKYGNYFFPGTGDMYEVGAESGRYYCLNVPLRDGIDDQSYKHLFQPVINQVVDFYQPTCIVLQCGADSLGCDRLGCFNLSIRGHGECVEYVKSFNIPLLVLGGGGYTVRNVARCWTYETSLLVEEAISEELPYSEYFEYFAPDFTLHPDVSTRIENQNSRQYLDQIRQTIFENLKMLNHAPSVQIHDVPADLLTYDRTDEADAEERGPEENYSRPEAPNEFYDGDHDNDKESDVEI
Sequence of Class 1 histone deacetylase (Homo sapiens) (Q13547 whole entry, looked up): as the sequence (Q13547 whole entry) above
Sequence of Class 1 histone deacetylase (Homo sapiens) (Q92769 whole entry, looked up): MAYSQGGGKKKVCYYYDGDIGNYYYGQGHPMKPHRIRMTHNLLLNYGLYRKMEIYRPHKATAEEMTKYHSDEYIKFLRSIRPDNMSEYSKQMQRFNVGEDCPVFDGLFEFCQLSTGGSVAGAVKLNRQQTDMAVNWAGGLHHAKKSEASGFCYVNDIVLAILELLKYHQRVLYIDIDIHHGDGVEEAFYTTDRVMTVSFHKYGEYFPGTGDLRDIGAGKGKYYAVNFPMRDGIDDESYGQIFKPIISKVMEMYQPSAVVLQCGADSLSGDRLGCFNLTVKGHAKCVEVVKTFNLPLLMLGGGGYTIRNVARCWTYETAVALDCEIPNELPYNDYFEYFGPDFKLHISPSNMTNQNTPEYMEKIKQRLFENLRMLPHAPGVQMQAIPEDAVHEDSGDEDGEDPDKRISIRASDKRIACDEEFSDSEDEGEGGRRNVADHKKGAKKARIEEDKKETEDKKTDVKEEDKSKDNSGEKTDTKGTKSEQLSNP
Sequence of Class 1 histone deacetylase (Homo sapiens) (Q9BY41 whole entry, looked up): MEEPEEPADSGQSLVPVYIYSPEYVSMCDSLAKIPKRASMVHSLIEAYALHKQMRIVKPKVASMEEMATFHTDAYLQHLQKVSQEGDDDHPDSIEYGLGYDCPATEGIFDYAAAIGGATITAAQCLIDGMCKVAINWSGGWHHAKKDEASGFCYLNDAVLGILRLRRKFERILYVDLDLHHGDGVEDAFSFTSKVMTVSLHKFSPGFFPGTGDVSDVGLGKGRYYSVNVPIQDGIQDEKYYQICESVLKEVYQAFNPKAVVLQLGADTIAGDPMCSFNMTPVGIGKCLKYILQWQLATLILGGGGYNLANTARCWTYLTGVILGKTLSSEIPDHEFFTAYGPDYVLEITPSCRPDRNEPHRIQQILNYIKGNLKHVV

CC1(C)C(=O)N(c2ccc(C#N)c(C(F)(F)F)c2)C(=S)N1c1ccc(C(=O)Nc2cc(-c3cccs3)ccc2N)cn1 gave an IC50 [1] of 11.1 µM and an IC50 [2] greater than 10 µM.
For CC1(C)C(=O)N(c2ccc(C#N)c(C(F)(F)F)c2)C(=S)N1CCCCC(=O)NO, the IC50 [1] was 3.09 µM, the IC50 [2] was 1.17 µM and the Activity [3] was “Active”.
For Nc1ccccc1NC(=O)c1ccc(CNC(=O)OCc2cccnc2)cc1 [ENTINOSTAT], the IC50 [2] was greater than 10 µM and the Activity [3] was “Active”.
For CC1(C)C(=O)N(c2ccc(C#N)c(C(F)(F)F)c2)C(=S)N1CCCCCCC(=O)NO, the IC50 [1] was 0.99 µM, the IC50 [2] was 0.39 µM and the Activity [3] was “Active”.
CC1(C)C(=O)N(c2ccc(C#N)c(C(F)(F)F)c2)C(=S)N1c1ccc(C(=O)Nc2cc(-c3cccs3)ccc2N)nc1 showed an IC50 [1] of 3.67 µM and an IC50 [2] greater than 10 µM.
Compound CC1(C)C(=O)N(c2ccc(C#N)c(C(F)(F)F)c2)C(=S)N1c1ccc(C(=O)Nc2ccccc2N)nc1 has an IC50 [1] of 5.58 µM and an IC50 [2] of 0.75 µM.
In the case of CC1(C)C(=O)N(c2ccc(C#N)c(C(F)(F)F)c2)C(=S)N1Cc1ccc(C(=O)Nc2ccccc2N)cc1, the Activity [4] is reported as “Active”, the IC50 [1] is reported as 1.04 µM and the Activity [5] is reported as “Non-Toxic”. For the same compound, the Activity [6] was “Active”, the Activity [7] was “Active” and the IC50 [2] was 0.28 µM. For the same compound, the Activity [8] was “Active” and the IC50 [9] was 1.6 µM.
In the case of CC1(C)C(=O)N(c2ccc(C#N)c(C(F)(F)F)c2)C(=S)N1c1ccc(C(=O)Nc2ccccc2N)cc1, the Activity [4] is reported as “Active”, the IC50 [1] is reported as 1.33 µM and the Activity [5] is reported as “Non-Toxic”. The Activity [10] was “Active”, the Activity [6] was “Active” and the Activity [7] was “Active”. For the same compound, the IC50 [2] was 0.98 µM, the Activity [8] was “Active” and the inhibition [11] was “Active”. The Activity [3] was “Active”.
CC1(C)C(=O)N(c2ccc(C#N)c(C(F)(F)F)c2)C(=S)N1c1ccc(C(=O)Nc2cc(-c3ccccc3)ccc2N)cc1 gave an IC50 [2] greater than 10 µM and an IC50 [12] of 5.96 µM.
For CC1(C)C(=O)N(c2ccc(C#N)c(C(F)(F)F)c2)C(=S)N1CCCC(=O)NO, the IC50 [1] was 44.9 µM, the IC50 [2] was 0.39 µM and the Activity [3] was “Active”.
With CC1(C)C(=O)N(c2ccc(C#N)c(C(F)(F)F)c2)C(=S)N1c1ccc(C(=O)Nc2ccccc2N)c(F)c1 the IC50 [1] was 2.86 µM, the IC50 [2] was 1.7 µM and the IC50 [9] was 2.5 µM.
CC1(C)C(=O)N(c2ccc(C#N)c(C(F)(F)F)c2)C(=S)N1c1ccc(C(=O)Nc2cc(-c3ccccc3)ccc2N)nc1 gave an IC50 [1] greater than 1000 µM and an IC50 [2] greater than 10 µM.
CC1(C)C(=O)N(c2ccc(C#N)c(C(F)(F)F)c2)C(=S)N1c1ccc(C(=O)Nc2ccccc2N)cn1 gave an IC50 [1] of 6.51 µM and an IC50 [2] of 2.34 µM.
CC1(C)C(=O)N(c2ccc(C#N)c(C(F)(F)F)c2)C(=S)N1C12CC(CC(=O)Nc3ccccc3N)(C1)C2 showed an IC50 [1] greater than 1000 µM and an IC50 [2] of 0.19 µM.
In the case of CC1(C)C(=O)N(c2ccc(C#N)c(C(F)(F)F)c2)C(=S)N1CCCCCC(=O)NO, the IC50 [1] is reported as 1.33 µM, the IC50 [2] is reported as 1.45 µM and the Activity [3] is reported as “Active”.
Work on CC1(C)C(=O)N(c2ccc(C#N)c(C(F)(F)F)c2)C(=S)N1c1ccc(C(=O)Nc2cc(-c3ccccc3)ccc2N)cn1 yielded an IC50 [1] of 2.39 µM and an IC50 [2] greater than 10 µM.
